Data from paper PMC11611271, “Rapid prediction of key residues for foldability by machine learning model enables the design of highly functional libraries with hyperstable constrained peptide scaffolds” (PLOS Computational Biology, 2024).
Where a SMILES comes first, the peptide text is derived from it. Bridges are numbered along the chain shown (N, C = ends). Where no end group is shown, it is not given here.

Columns and labels:
CD8α/β = assay: phage spot ELISA on CD8α/β; assay type: binding; details: for S/N: phage spot ELISA signal/noise; for ELISA: phage spot ELISA signal
Text: To determine the performance of the libraries for ligand discovery we chose a panel of eight protein targets, which have no structural homology and a wide mass range (Fig 7C). We screened these eight targets with solution panning strategy and two additional plate panning for CD8α/β and CD28, thus ten panning campaigns in total. We consider clones showing spot phage ELISA signal > 0.3 and signal/noise ratio > 2 as positive hits. At least one binding hit was discovered for nine out of the ten panning campaigns, surpassing the success rate of the best DCP scaffolds reported previously. We also obtained the NGS data for these screening and the ranking of clones for their enrichment along the rounds of screening was analyzed and considered the top-ranking clones as potential hits. Based on their sequence diversity we selected 16 potential hits spanning five protein targets for peptide synthesis in their linear form. Seven of these are hits with positive phage ELISA signal and nine were selected based on NGS ranking without spot ELISA available. Subsequently, we conducted in vitro folding experiments on these peptides in various buffers. We observed a strong propensity for spontaneous folding regardless of the buffer condition. All HCP hits tested successfully folded into three-disulfide-containing product within two days in a universal buffer system (PBS, pH 7.4, 50% DMSO) without the need for a redox pair, as shown in Fig 8A. The binding of these folded peptides to their respective target proteins was confirmed using SPR (Table 4 and S1 Data) and binding kinetics are exemplified by the high-affinity peptide 5ji4-CRD7-2 (see Fig 8B). Among seven selected ELISA-positive hits, all of them were successfully synthesized and in vitro folded with three disulfide bonds and five were proven to be validated binders by SPR (Table 4). Nine peptides selected from the NGS ranking were synthesized and folded with the expected number of disulfide bonds and five of them bound to their target with affinities in the μM range as determined by SPR (Table 4). In general, binding affinities for these SPR-validated initial hits are weak, with Kd values in the micromolar range and fast on- and off-rates. There are two exceptions with binding affinities in the nanomolar range.
(§1) The 5ji4 libraries were constructed following the Kunkel mutagenesis method and the solution panning protocol was followed as previously described. After four to five rounds of binding selection, while eluted pool was subjected to NGS analysis, individual phage clones were also picked and analyzed with phage spot ELISA. Positive clones were subjected to SANGER sequencing.

HtrA1 = assay: phage spot ELISA on HtrA1; assay type: binding; details: Fig 9A; for ELISA s/n: Spot ELISA signal/noise; for ELISA signal: Spot ELISA
Text: To determine the performance of the libraries for ligand discovery we chose a panel of eight protein targets, which have no structural homology and a wide mass range (Fig 7C). We screened these eight targets with solution panning strategy and two additional plate panning for CD8α/β and CD28, thus ten panning campaigns in total. We consider clones showing spot phage ELISA signal > 0.3 and signal/noise ratio > 2 as positive hits. […] We also obtained the NGS data for these screening and the ranking of clones for their enrichment along the rounds of screening was analyzed and considered the top-ranking clones as potential hits. Based on their sequence diversity we selected 16 potential hits spanning five protein targets for peptide synthesis in their linear form. Seven of these are hits with positive phage ELISA signal and nine were selected based on NGS ranking without spot ELISA available. Subsequently, we conducted in vitro folding experiments on these peptides in various buffers.
as §1
Among these five hits, A7, which is the SANGER hit, was picked for affinity maturation. Following the same strategy, one soft- and one hard-randomization library was designed targeting the 5JI4 variable regions 1 and 2, respectively. Two libraries were each panned as previously described. Both phage spot ELISA coupled with SANGER sequencing and NGS analysis were applied after affinity maturation.

human full-length HtrA1 = target: T1, human full-length HtrA1 (Homo sapiens, UniProt Q92743); assay: HtrA1 enzymatic assay; assay type: biochemical
T1 construct: we used human full-length HtrA1 (HtrA1), which was expressed in Trichoplusia ni cells; made in house; host or cells: Trichoplusia ni cells
T1 sequence (Q92743 23-480): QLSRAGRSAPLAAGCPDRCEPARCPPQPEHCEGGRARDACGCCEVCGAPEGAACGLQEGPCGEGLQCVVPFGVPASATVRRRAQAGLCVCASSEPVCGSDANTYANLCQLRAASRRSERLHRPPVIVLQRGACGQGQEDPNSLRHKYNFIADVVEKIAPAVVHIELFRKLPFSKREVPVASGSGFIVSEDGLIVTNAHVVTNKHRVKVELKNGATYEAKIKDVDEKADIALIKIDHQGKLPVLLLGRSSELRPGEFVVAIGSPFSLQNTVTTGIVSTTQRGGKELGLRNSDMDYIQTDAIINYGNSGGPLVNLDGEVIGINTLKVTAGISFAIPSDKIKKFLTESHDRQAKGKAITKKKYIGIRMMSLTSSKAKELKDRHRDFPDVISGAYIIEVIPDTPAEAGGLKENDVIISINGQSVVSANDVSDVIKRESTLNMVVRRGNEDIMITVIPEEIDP
Experimental: For enzymatic assays we used human full-length HtrA1 (HtrA1), which was expressed in Trichoplusia ni cells and purified as described. Enzyme assays with the fluorescence-quenched synthetic substrate Mca-[…](Dnp)KK (H2-OPT) were carried out essentially as described. […] A 10 mM stock solution of H2-OPT in DMSO was diluted with water, prewarmed at 37°C and then added to the HCP-enzyme mixtures. The final concentrations in the reaction mixtures were: 1 nM HtrA1, 5 μM H2-OPT, 0.1% DMSO and varied concentrations of HCP. Substrate cleavage was measured at 37°C on a SPECTRAmax M5 microplate reader (Molecular Devices) and the initial rates of cleavage determined. The IC50 values were determined by fitting the data to the 4 parameter sigmoid function.

CD28-Fc = CD28-Fc (Homo sapiens, UniProt P10747); assay: SPR binding to CD28-Fc; parameters: purchased R&D 342-CD-200; details: folded synthetic peptide; Biacore S200, 25°C, HBS-EP w. 5% DMSO, single-cycle kinetics; kinetic fitting (values not marked *); N.B. = no binding
Chain of CD28-Fc (P10747 19-152 limits assumed): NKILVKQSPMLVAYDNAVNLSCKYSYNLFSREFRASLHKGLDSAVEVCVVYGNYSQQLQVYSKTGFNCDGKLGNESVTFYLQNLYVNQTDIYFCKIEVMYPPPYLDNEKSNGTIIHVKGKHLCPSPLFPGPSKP
Experimental: Peptide synthesis was done by CSBio (Menlo Park, CA). The linear peptides were synthesized as free N- and C- terminus. For the small-scale in vitro folding test, linear peptides were dissolved in 100% DMSO as 10 mg/ml stock, then 1/20 diluted into folding buffers. Five different buffer conditions were tested: [1] 0.1 M NH4HCO3 pH 9.0, 2 mM reduced glutathione, 0.5 mM oxidized glutathione, and 9% DMSO; [2] 0.1 M NH4HCO3 pH 8.0, 1 mM reduced glutathione, and 55% DMSO; [3] dI-water w. 5% DMSO; [4] 1X PBS pH 7.4 w. 10% DMSO; and [5] 1X PBS pH 7.4 w. 50% DMSO. Refolding was promoted by incubation at R.T. with gentle rotation and monitored by LC-MS for disulfide bond formation. […] Therefore, buffer condition was used as a universal refolding buffer for all HCP peptides. After refolding, peptides with three disulfide bonds were purified by HPLC according to standard procedure and subjected to SPR measurements.
All binding experiments were performed using a Biacore S200 instrument (GE Healthcare) at 25°C at a flow rate of 30 μl/min in HBS-EP buffer (Cytiva, #BR100188) w. 5% DMSO. The kinetics and affinity measurements were carried out using single-cycle kinetics (SCK) and referenced by subtracting the signal from the blank flow cell. […]

VEGF_(8-109) [1] = target: VEGF_(8-109) (UniProt P15692); assay: ELISA; phage spot ELISA of individual phage clones after panning; clones with signal > 0.3 and signal/noise ratio > 2 counted as positive hits
VEGF_(8-109) [2] = target: VEGF_(8-109) (UniProt P15692); assay: SPR; Biacore S200, target on Series S Sensor Chip SA, peptide flowed, single-cycle kinetics, three-fold dilution series from approximately 100 μM, 25°C, 30 μl/min, HBS-EP with 5% DMSO; 1:1 binding (kinetic) model
CD8α-Fc [3] = target: T2, CD8α-Fc (UniProt P01732 22-182); assay: SPR; Biacore S200, Fc-fusion target on Sensor Chip Protein A, peptide flowed, single-cycle kinetics, three-fold dilution series from approximately 100 μM, 25°C, 30 μl/min, HBS-EP with 5% DMSO; 1:1 binding (kinetic) model, or no binding seen; details: both partners purified
T2 construct: CD8 alpha chain, bought as Fc fusion; captured on a Protein A sensor chip by its Fc; source: bought: R&D, #AVI10927
T2 sequence (P01732 22-182): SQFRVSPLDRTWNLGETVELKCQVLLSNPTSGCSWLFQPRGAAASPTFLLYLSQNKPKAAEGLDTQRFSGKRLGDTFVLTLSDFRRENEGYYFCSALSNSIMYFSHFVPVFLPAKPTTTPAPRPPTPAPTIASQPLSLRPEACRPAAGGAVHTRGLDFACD

CD8α-Fc [4] = target: T2, CD8α-Fc; assay: SPR; Biacore S200, Fc-fusion target on Sensor Chip Protein A, peptide flowed, single-cycle kinetics, three-fold dilution series from approximately 100 μM, 25°C, 30 μl/min, HBS-EP with 5% DMSO; steady-state equilibrium model; details: both partners purified
[5] = S3 Table sheet CD8αβ-2 (panning campaign 2)
[6] = S3 Table sheet CD8αβ-1 (panning campaign 1)

## PCECGPYHDDMDKTSSEECERLCRKLGVTNCRVHCG [CD8αβ-2 clone 2, phage clone, 5JI4 library, CD8αβ-2 panning]
CD8α/β; [5]
  S/N: 2.4
  ELISA: 0.296

## PCECDVNGETYTVSSSEECERLCRKLGVTNCRVHCG (also: bicyclic or more (positions not given here)) [5ji4, reference compound]
HtrA1
  ELISA s/n: 1.4
  ELISA signal: 0.83
Human full-length HtrA1; 1 nM HtrA1, 5 μM H2-OPT substrate, 0.1% DMSO, 15 min pre-incubation, 37°C, pH 8.0, 4 parameter fit
  IC50: not inhibitory

## PSECPNPPFEVRTWSSEECERLCRKLGVTNCVCG [CD8αβ-1 clone 1, phage clone, 5JI4 library, CD8αβ-1 panning]
CD8α/β; [6]
  S/N: 18.5
  ELISA: 1.938

## PCECDVHGETYTVSSSEEGTSVPTWLISLCRVHCG [CD8αβ-1 clone 2, phage clone, 5JI4 library, CD8αβ-1 panning]
CD8α/β; [6]
  S/N: 34.8
  ELISA: 3.031

## CC[C@H](C)[C@@H]1NC(=O)[C@H]([C@@H](C)O)NC(=O)[C@@H]2CSSC[C@H](NC(=O)[C@H](CCC(=O)O)NC(=O)[C@H](C)NC(=O)[C@H](CO)NC(=O)[C@H](CO)NC(=O)[C@H]([C@@H](C)O)NC(=O)[C@H](CC(C)C)NC(=O)[C@H](Cc3ccccc3)NC(=O)[C@H](Cc3c[nH]cn3)NC(=O)[C@H](Cc3c[nH]c4ccccc34)NC(=O)CNC(=O)[C@H](CCCNC(=N)N)NC(=O)[C@H](CC(C)C)NC1=O)C(=O)N[C@@H](CCC(=O)O)C(=O)N[C@@H](CCCNC(=N)N)C(=O)N[C@@H](CC(C)C)C(=O)N[C@H]1CSSC[C@H](NC(=O)[C@H]([C@@H](C)O)NC(=O)[C@H](CCCNC(=N)N)NC(=O)[C@H](CC(C)C)NC(=O)CNC(=O)[C@H](CC(C)C)NC(=O)[C@H](CCCNC(=N)N)NC(=O)[C@H](CC(=O)O)NC1=O)C(=O)N[C@@H](CCCNC(=N)N)C(=O)N[C@@H](C(C)C)C(=O)N[C@@H](Cc1c[nH]cn1)C(=O)N[C@H](C(=O)NCC(=O)O)CSSC[C@H](NC(=O)[C@@H]1CCCN1)C(=O)N[C@@H](CCC(=O)O)C(=O)N2 [5ji4_A7] (H-PCECTILRGWHFLTSSAECERLCDRLGLRTCRVHCG-OH; disulfide 2-35, 4-19, 23-31)
HtrA1
  ELISA s/n: 5.8
  ELISA signal: 3.36
Human full-length HtrA1; maximal inhibition in the concentration-response
  inhibition of HtrA1 activity: complete inhibition

## PCECDYPVYHDDYKSSEECERLCRKLGVTNCRVHCG [CD8αβ-2 clone 1, phage clone, 5JI4 library, CD8αβ-2 panning]
CD8α/β; [5]
  S/N: 27.2
  ELISA: 3.534

## PCECLMIAVMLVRPSSEECERLCRKLGVTNCRVHCG [CD8αβ-2 clone 3, phage clone, 5JI4 library, CD8αβ-2 panning]
CD8α/β; [5]
  S/N: 1.6
  ELISA: 0.223

## P C E C EDTTFFIIFNSSEE C ERL C RKLGVTN C RVH C G (bicyclic or more) [5ji4-CD28-4, 5JI4 library hit for CD28, synthesized and folded in vitro]
CD28-Fc
  SPR Kd: N.B.

B1: 5ji4-VEGF-2 displayed on M13 phage (peptide)
chain: PCECFMYDILVGLASSEECERLCRKLGVTNCRVHCG
VEGF_(8-109) [1]
  phage spot ELISA signal: 4.71
  phage spot ELISA signal/noise (s/n): 44.5

B2: 5ji4-VEGF-3 displayed on M13 phage (peptide)
chain: PCECDVNVETYTVSSSEECKRLCWGFGQSDCRVHCG
VEGF_(8-109) [1]
  phage spot ELISA signal: 3.07
  phage spot ELISA signal/noise (s/n): 32.2

B3: 5ji4-VEGF-2 (peptide)
chain: PCECFMYDILVGLASSEECERLCRKLGVTNCRVHCG
VEGF_(8-109) [2]
  Kd: 6.8 µM

B4: 5ji4-VEGF-3 (peptide)
chain: PCECDVNVETYTVSSSEECKRLCWGFGQSDCRVHCG
VEGF_(8-109) [2]
  Kd: 0.12 µM

B5: 5ji4-CD8-2 (peptide)
chain: H-PCECVWESFAHLPWSSEECERLCRKLGVTNCVCG-OH
modifications: disulfide (positions not given here); also: three disulfide bonds, pairing not given here
CD8α-Fc [3]
  Kd: 4.2 ± 4.3 µM

B6: 5ji4-CD8-20 (peptide)
chain: PCECDVNGETYTVSSSEECERLCVWWLSTVCRVPCG
notes: clone from the 5JI4 scaffold phage libraries, picked by NGS ranking; free N- and C-termini; three disulfide bonds; source: synthetic peptide (CSBio), folded in vitro, HPLC purified
CD8α-Fc [4]
  Kd: 23 ± 7 µM

B7: 5ji4-CD8-21 (peptide)
chain: PCECVWESFAHLPWSSEECERLCLNWLSSLCRVHCG
notes: as for B6
CD8α-Fc [3]
  Kd: 6 ± 2.2 µM

B8: 5ji4-CD8-22 (peptide)
chain: PCECLVTPYKDDYKSSEECERLCVWWLSTVCRVPCG
notes: as for B6
CD8α-Fc [4]
  Kd: 76.3 ± 35.7 µM
